Test results taken from USRE44962E1, “Genetically engineered plant cells and plants exhibiting resistance to glutamine synthetase inhibitors, DNA fragments and recombinants for use in the production of said cells and plants” (Bayer Cropscience N.V., priority 1986, dated 2014).

Test system: S. lividans
Assay type: cell-based
Details: relative to S. lividans without the plasmid

Compound: CC(NC(=O)C(C)NC(=O)C(N)CCP(C)(=O)O)C(=O)O (stereo not shown) [Bialaphos]
- resistance to Bialaphos of S. lividans strains containing pBG20: more than 500 times
